Target: T1, Muscarinic acetylcholine receptor M1 (Homo sapiens, UniProt P11229)
T1 sequence (P11229 whole entry): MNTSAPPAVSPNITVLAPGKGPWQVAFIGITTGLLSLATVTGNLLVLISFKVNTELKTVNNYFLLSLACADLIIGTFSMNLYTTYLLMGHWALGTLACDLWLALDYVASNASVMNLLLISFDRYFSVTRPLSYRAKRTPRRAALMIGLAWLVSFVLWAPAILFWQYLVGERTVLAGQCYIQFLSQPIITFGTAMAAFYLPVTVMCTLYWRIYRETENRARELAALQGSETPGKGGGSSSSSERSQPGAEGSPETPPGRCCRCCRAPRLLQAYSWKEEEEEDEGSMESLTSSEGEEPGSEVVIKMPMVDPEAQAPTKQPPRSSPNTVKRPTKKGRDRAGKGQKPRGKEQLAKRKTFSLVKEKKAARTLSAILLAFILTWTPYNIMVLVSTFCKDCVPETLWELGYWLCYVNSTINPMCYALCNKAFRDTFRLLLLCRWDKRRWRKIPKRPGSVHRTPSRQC
Assay: Agonist activity at human muscarinic M1 receptor expressed in CHO cells assessed as effect on acetylcholine-induced intracellular calcium level by FLIPR assay
Assay type: functional, cell-based

Row | SMILES | EC50 [µM]
1 | O=C(NCC1CCNCC1)c1ccccc1-c1cccc2ccccc12 | > 10
2 | O=C(NCC1CCNCC1)c1ccccc1-c1ccc(F)cc1 | > 10
3 | O=C(NCC12CCN(CC1)C2)c1ccccc1-c1cccc(Cl)c1 | > 10
4 | CN1CCC(CNC(=O)c2ccccc2-c2cccc(Cl)c2)CC1 | > 10
5 | O=C(NCC1CCNCC1)c1ccccc1-c1ccc(C(F)(F)F)cc1 | > 10
6 | CC(=O)Nc1cccc(-c2ccccc2C(=O)NCC2CCNCC2)c1 | > 10
7 | O=C(NCC1CCN2CCCC1C2)c1ccccc1-c1cccc(Cl)c1 (stereo unspecified) | > 10
8 | CC(=O)c1cccc(-c2ccccc2C(=O)NCC2CCNCC2)c1 | > 10
9 | N#Cc1cccc(-c2ccccc2C(=O)NCC2CCNCC2)c1 | > 10
10 | O=C(NCC1CCNCC1)c1ccccc1-c1cccc(C(F)(F)F)c1 | > 10
11 | N[C@H]1CC[C@H](CNC(=O)c2ccccc2-c2cccc(Cl)c2)CC1 | > 10
12 | O=C(NCC1CCNCC1)c1ccccc1-c1ccc2ccccc2c1 | > 10
13 | CN(C)C(=O)c1cccc(-c2ccccc2C(=O)NCC2CCNCC2)c1 | > 10
14 | Cc1cccc(-c2ccccc2C(=O)NCC2CCNCC2)c1 | > 10
15 | CC1(C)CNCCC1CNC(=O)c1cc(Cl)ccc1-c1cccc(Cl)c1 (stereo unspecified) | > 10
16 | O=C(NCC1CCNCC1)c1ccccc1-c1cccc(-c2ccccc2)c1 | > 10
17 | O=C(NCC1CCNCC1)c1ccccc1-c1cccc(OC(F)(F)F)c1 | > 10
18 | COc1cccc(-c2ccccc2C(=O)NCC2CCNCC2)c1 | > 10
19 | CS(=O)(=O)c1cccc(-c2ccccc2C(=O)NCC2CCNCC2)c1 | > 10
20 | O=C(NC[C@H]1C[C@H]2CC[C@@H](C1)N2)c1ccccc1-c1cccc(Cl)c1 | > 10
21 | NC(=O)c1cccc(-c2ccccc2C(=O)NCC2CCNCC2)c1 | > 10
22 | O=C(O)c1cccc(-c2ccccc2C(=O)NCC2CCNCC2)c1 | > 10
23 | CN(C)c1cccc(-c2ccccc2C(=O)NCC2CCNCC2)c1 | > 10
24 | NS(=O)(=O)c1cccc(-c2ccccc2C(=O)NCC2CCNCC2)c1 | > 10
25 | COc1ccccc1-c1ccccc1C(=O)NCC1CCNCC1 | > 10
26 | O=C(NCC12CCN(CC1)CC2)c1ccccc1-c1cccc(Cl)c1 | > 10
27 | COCc1cccc(-c2ccccc2C(=O)NCC2CCNCC2)c1 | > 10

The next lines start with the values.

Row | EC50 [µM] | SMILES
28 | > 10 | CC(NC(=O)c1ccccc1-c1cccc(Cl)c1)C1CCNCC1 (stereo unspecified)
29 | > 10 | O=C(NCC1CCNC1)c1ccccc1-c1nc(Cl)cs1 (stereo unspecified)
30 | > 10 | O=C(NC1CCCNC1)c1ccccc1-c1nc(Cl)cs1 (stereo unspecified)
31 | > 10 | O=C(NCC1CCNCC1)c1ccccc1-c1ccccc1Cl
32 | > 10 | O=C(NC1CCCCNC1)c1ccccc1-c1nc(Cl)cs1 (stereo unspecified)
33 | > 10 | O=C(NCC1CCCN1)c1ccccc1-c1nc(Cl)cs1 (stereo unspecified)
34 | > 10 | O=C(NCC1CNCCO1)c1ccccc1-c1nc(Cl)cs1 (stereo unspecified)
35 | > 10 | O=C(NC1CCNC1)c1ccccc1-c1nc(Cl)cs1 (stereo unspecified)
36 | > 10 | O=C(NCC1CCNCC1)c1ccccc1-c1cccs1
37 | > 10 | O=C(NCC1CCNCC1)c1ccccc1-c1ccncc1
38 | > 10 | O=C(NCC1CCNCC1)c1ccccc1-c1ccco1
39 | > 10 | O=C(NCc1ccncc1)c1ccccc1-c1nc(Cl)cs1
40 | > 10 | O=C(NCC1CCOCC1)c1ccccc1-c1nc(Cl)cs1
41 | > 10 | O=C(NCC1CCNCC1)c1ccccc1-c1nccs1
42 | > 10 | Cc1ccc(-c2ccccc2C(=O)NCC2CCNCC2)cc1
43 | > 10 | O=C(NCC1CCNCC1)c1ccccc1-c1ccc(Cl)s1
44 | > 10 | COc1ccc(-c2ccccc2C(=O)NCC2CCNCC2)cc1
45 | > 10 | O=C(NCC1CCNCC1)c1ccccc1-c1cccnc1
46 | > 10 | O=C(NCC1CCNCC1)c1ccccc1-c1ccsc1
47 | > 10 | O=C(NCC1CCCNC1)c1ccccc1-c1nc(Cl)cs1 (stereo unspecified)
48 | > 10 | O=C(NCC1CCNCC1)c1ccccc1-c1cccc(F)c1
49 | > 10 | O=C(NC1CCNCC1)c1ccccc1-c1nc(Cl)cs1

Target: T2, Muscarinic acetylcholine receptor M1 (Homo sapiens) (UniProt P11229)
T2 sequence (whole entry): T1 sequence (P11229 whole entry)
Assay: Intrinsic activity at human muscarinic M1 receptor expressed in CHO cells assessed as effect on acetylcholine-induced intracellular calcium level by FLIPR assay relative to acetylcholine
Assay type: functional, cell-based

Row | Intrinsic activity [%] | SMILES
50 | 26 | CC(NC(=O)c1ccccc1-c1cccc(Cl)c1)C1CCNCC1 (stereo unspecified)
51 | 16 | CN1CCC(CNC(=O)c2ccccc2-c2cccc(Cl)c2)CC1

Reference: ChEMBL document CHEMBL1158607, “2' biaryl amides as novel and subtype selective M1 agonists. Part I: Identification, synthesis, and initial SAR” (Bioorg Med Chem Lett, 2010)
